Laboratory results taken from PubChem BioAssay AID1918946 (Molecular Pharmacology Branch, DTP, NCI, 2023).
Several values for one entry are separate records, joined by “and”; a condition that tells them apart may be missing. Equal entries are not always repeated. Values belong to the molecule of their own block, whether it stands above or below them.

Test system: 885512-296-R-J2-PDC complex spheroid viability
Test: Anticancer human tumor 885512-296-R-J2-PDC patient-derived breast carcinoma cell line growth inhibition
Conditions: for viability, T/C: stronger effect = lower value
Method in brief: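 Complex spheroids of tumor cells with HUVEC and human MSCs, exposed to iadademstat combined with other agents. Each agent tested in half-log steps from near clinical Cmax (else 10 microM top), DMSO ≤0.25%.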

[1] = curve of first compound, second compound 0.1 µM
[2] = curve of first compound, second compound 0.316 µM
[3] = curve of first compound, second compound 1 µM
[4] = curve of first compound, second compound 3.16 µM
[5] = curve of first compound, second compound 10 µM
[6] = second compound 0.1 µM, first compound 0.00316 µM
[7] = second compound 0.1 µM, first compound 0.01 µM
[8] = second compound 0.1 µM, first compound 0.0316 µM
[9] = second compound 0.1 µM, first compound 0.1 µM
[10] = second compound 0.1 µM, first compound 0.316 µM
[11] = second compound 0.1 µM, first compound 1 µM
[12] = second compound 0.316 µM, first compound 0.00316 µM
[13] = second compound 0.316 µM, first compound 0.01 µM
[14] = second compound 0.316 µM, first compound 0.0316 µM
[15] = second compound 0.316 µM, first compound 0.1 µM
[16] = second compound 0.316 µM, first compound 0.316 µM
[17] = second compound 0.316 µM, first compound 1 µM
[18] = second compound 1 µM, first compound 0.00316 µM
[19] = second compound 1 µM, first compound 0.01 µM
[20] = second compound 1 µM, first compound 0.0316 µM
[21] = second compound 1 µM, first compound 0.1 µM
[22] = second compound 1 µM, first compound 0.316 µM
[23] = second compound 1 µM, first compound 1 µM
[24] = second compound 3.16 µM, first compound 0.00316 µM
[25] = second compound 3.16 µM, first compound 0.01 µM
[26] = second compound 3.16 µM, first compound 0.0316 µM
[27] = second compound 3.16 µM, first compound 0.1 µM
[28] = second compound 3.16 µM, first compound 0.316 µM
[29] = second compound 3.16 µM, first compound 1 µM
[30] = second compound 10 µM, first compound 0.00316 µM
[31] = second compound 10 µM, first compound 0.01 µM
[32] = second compound 10 µM, first compound 0.0316 µM
[33] = second compound 10 µM, first compound 0.1 µM
[34] = second compound 10 µM, first compound 0.316 µM
[35] = second compound 10 µM, first compound 1 µM
[36] = second compound 0.1 µM, first compound 0.000949 µM
[37] = second compound 0.1 µM, first compound 0.003 µM
[38] = second compound 0.1 µM, first compound 0.00949 µM
[39] = second compound 0.1 µM, first compound 0.03 µM
[40] = second compound 0.1 µM, first compound 0.0949 µM
[41] = second compound 0.1 µM, first compound 0.3 µM
[42] = second compound 0.316 µM, first compound 0.000949 µM
[43] = second compound 0.316 µM, first compound 0.003 µM
[44] = second compound 0.316 µM, first compound 0.00949 µM
[45] = second compound 0.316 µM, first compound 0.03 µM
[46] = second compound 0.316 µM, first compound 0.0949 µM
[47] = second compound 0.316 µM, first compound 0.3 µM
[48] = second compound 1 µM, first compound 0.000949 µM
[49] = second compound 1 µM, first compound 0.003 µM
[50] = second compound 1 µM, first compound 0.00949 µM
[51] = second compound 1 µM, first compound 0.03 µM
[52] = second compound 1 µM, first compound 0.0949 µM
[53] = second compound 1 µM, first compound 0.3 µM
[54] = second compound 3.16 µM, first compound 0.000949 µM
[55] = second compound 3.16 µM, first compound 0.003 µM
[56] = second compound 3.16 µM, first compound 0.00949 µM
[57] = second compound 3.16 µM, first compound 0.03 µM
[58] = second compound 3.16 µM, first compound 0.0949 µM
[59] = second compound 3.16 µM, first compound 0.3 µM
[60] = second compound 10 µM, first compound 0.000949 µM
[61] = second compound 10 µM, first compound 0.003 µM
[62] = second compound 10 µM, first compound 0.00949 µM
[63] = second compound 10 µM, first compound 0.03 µM
[64] = second compound 10 µM, first compound 0.0949 µM
[65] = second compound 10 µM, first compound 0.3 µM
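Further: spheroids exposed to agents for 7 days before viability read.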

Compound: CC1COCCN1c1cc(-c2ccnn2C)c2ccnc(-c3ccn[nH]3)c2n1 (stereo unspecified) + NC1CCC(NC2CC2c2ccccc2)CC1
IC50 [1]: < 3.16 nM
IC50 [2]: < 3.16 nM
IC50 [3]: < 3.16 nM
IC50 [4]: < 3.16 nM
IC50 [5]: < 3.16 nM
viability, T/C [6]: 42%
viability, T/C [7]: 8.7%
viability, T/C [8]: 9.16%
viability, T/C [9]: 5.02%
viability, T/C [10]: 7.43%
viability, T/C [11]: 11.5%
viability, T/C [12]: 42%
viability, T/C [13]: 10.9%
viability, T/C [14]: 4.73%
viability, T/C [15]: 4.6%
viability, T/C [16]: 6.77%
viability, T/C [17]: 5.15%
viability, T/C [18]: 38.8%
viability, T/C [19]: 10.6%
viability, T/C [20]: 5.72%
viability, T/C [21]: 5.22%
viability, T/C [22]: 4.61%
viability, T/C [23]: 8.49%
viability, T/C [24]: 38.8%
viability, T/C [25]: 7.56%
viability, T/C [26]: 3.3%
viability, T/C [27]: 6.46%
viability, T/C [28]: 4.63%
viability, T/C [29]: 4.98%
viability, T/C [30]: 23.8%
viability, T/C [31]: 5.72%
viability, T/C [32]: 3.24%
viability, T/C [33]: 2.51%
viability, T/C [34]: 2.18%
viability, T/C [35]: 2.8%

Compound: COc1cc(Nc2ncc3c(n2)-c2ccc(Cl)cc2C(c2c(F)cccc2OC)=NC3)ccc1C(=O)O + NC1CC1c1ccc(-c2cccc(O)c2)cc1
IC50 [1]: < 3.16 nM
IC50 [2]: < 3.16 nM
IC50 [3]: < 3.16 nM
IC50 [4]: < 3.16 nM
IC50 [5]: < 3.16 nM
viability, T/C [6]: 32%
viability, T/C [7]: 34%
viability, T/C [8]: 17.9%
viability, T/C [9]: 23.5%
viability, T/C [10]: 21.7%
viability, T/C [11]: 20.1%
viability, T/C [12]: 30.3%
viability, T/C [13]: 35.4%
viability, T/C [14]: 20.9%
viability, T/C [15]: 21.7%
viability, T/C [16]: 25.4%
viability, T/C [17]: 19.1%
viability, T/C [18]: 33.5%
viability, T/C [19]: 35.8%
viability, T/C [20]: 20.4%
viability, T/C [21]: 21.6%
viability, T/C [22]: 22.1%
viability, T/C [23]: 19.6%
viability, T/C [24]: 27%
viability, T/C [25]: 29.8%
viability, T/C [26]: 19.8%
viability, T/C [27]: 13.2%
viability, T/C [28]: 19.4%
viability, T/C [29]: 15.4%
viability, T/C [30]: 15%
viability, T/C [31]: 20.2%
viability, T/C [32]: 14.2%
viability, T/C [33]: 8.64%
viability, T/C [34]: 11.8%
viability, T/C [35]: 12.7%

IC50 (curve of compound): 6.45 nM and 4.56 nM
Compound: CC(C)CC(NC(=O)CNC(=O)c1cc(Cl)ccc1Cl)B1OC(=O)CC(CC(=O)O)(C(=O)O)O1 (stereo unspecified)
viability, T/C (compound 0.000316 µM): 102% and 89.6%
viability, T/C (compound 0.001 µM): 84.1% and 89.2%
viability, T/C (compound 0.00316 µM): 96.3% and 68.9%
viability, T/C (compound 0.01 µM): 22.7% and 9.34%
viability, T/C (compound 0.0316 µM): 8.52% and 2.1%
viability, T/C (compound 0.1 µM): 4.36% and 0.41%

Compound: CCc1c2c(nc3ccc(O)cc13)-c1cc3c(c(=O)n1C2)COC(=O)[C@]3(O)CC + NC1CC1c1ccc(-c2cccc(O)c2)cc1
IC50 [1]: < 0.949 nM
IC50 [2]: < 0.949 nM
IC50 [3]: < 0.949 nM
IC50 [4]: < 0.949 nM
IC50 [5]: < 0.949 nM
viability, T/C [36]: 1.84%
viability, T/C [37]: 1.73%
viability, T/C [38]: 1.08%
viability, T/C [39]: 1.22%
viability, T/C [40]: 1.37%
viability, T/C [41]: 1.16%
viability, T/C [42]: 2.42%
viability, T/C [43]: 1.57%
viability, T/C [44]: 1.3%
viability, T/C [45]: 1.37%
viability, T/C [46]: 1.16%
viability, T/C [47]: 1.05%
viability, T/C [48]: 1.79%
viability, T/C [49]: 1.95%
viability, T/C [50]: 1.46%
viability, T/C [51]: 1.26%
viability, T/C [52]: 1.14%
viability, T/C [53]: 1.13%
viability, T/C [54]: 2.13%
viability, T/C [55]: 1.76%
viability, T/C [56]: 1.07%
viability, T/C [57]: 1.01%
viability, T/C [58]: 0.8%
viability, T/C [59]: 0.78%
viability, T/C [60]: 2.37%
viability, T/C [61]: 2.17%
viability, T/C [62]: 1.55%
viability, T/C [63]: 0.87%
viability, T/C [64]: 0.91%
viability, T/C [65]: 0.8%

Compound: CCc1c2c(nc3ccc(O)cc13)-c1cc3c(c(=O)n1C2)COC(=O)[C@]3(O)CC + NC1CCC(NC2CC2c2ccccc2)CC1
IC50 [1]: < 0.949 nM
IC50 [2]: < 0.949 nM
IC50 [3]: < 0.949 nM
IC50 [4]: < 0.949 nM
IC50 [5]: < 0.949 nM
viability, T/C [36]: 5.05%
viability, T/C [37]: 2.28%
viability, T/C [38]: 7.01%
viability, T/C [39]: 6.9%
viability, T/C [40]: 6.49%
viability, T/C [41]: 3.96%
viability, T/C [42]: 2.42%
viability, T/C [43]: 4.76%
viability, T/C [44]: 4.46%
viability, T/C [45]: 6.46%
viability, T/C [46]: 6.66%
viability, T/C [47]: 4.85%
viability, T/C [48]: 4.94%
viability, T/C [49]: 2.3%
viability, T/C [50]: 1.74%
viability, T/C [51]: 1.31%
viability, T/C [52]: 1.26%
viability, T/C [53]: 3.93%
viability, T/C [54]: 1.98%
viability, T/C [55]: 2.41%
viability, T/C [56]: 1.65%
viability, T/C [57]: 4.17%
viability, T/C [58]: 1.31%
viability, T/C [59]: 6.19%
viability, T/C [60]: 2.47%
viability, T/C [61]: 1.92%
viability, T/C [62]: 1.39%
viability, T/C [63]: 3.6%
viability, T/C [64]: 3.36%
viability, T/C [65]: 1.14%

IC50 (compound alone, run of 01/24/2022): > 10000 nM
Compound: NC1CCC(NC2CC2c2ccccc2)CC1 (stereo unspecified)
viability, T/C (compound 0.316 µM): 121% (2×) and 120%

Compound: O=C(c1cc(Cc2n[nH]c(=O)c3ccccc23)ccc1F)N1CCN(C(=O)C2CC2)CC1 + NC1CC1c1ccc(-c2cccc(O)c2)cc1
IC50 [1]: 945 nM
IC50 [2]: 896 nM
IC50 [3]: 805 nM
IC50 [4]: 660 nM
IC50 [5]: 361 nM
viability, T/C [8]: 116%
viability, T/C [9]: 106%
viability, T/C [10]: 90.9%
viability, T/C [11]: 48.6%
viability, T/C (second compound 0.1 µM, first compound 3.16 µM): 13.1%
viability, T/C (second compound 0.1 µM, first compound 10 µM): 4.93%
viability, T/C [14]: 103%
viability, T/C [15]: 114%
viability, T/C [16]: 76.6%
viability, T/C [17]: 51.7%
viability, T/C (second compound 0.316 µM, first compound 3.16 µM): 10.8%
viability, T/C (second compound 0.316 µM, first compound 10 µM): 5.15%
viability, T/C [20]: 96.9%
viability, T/C [21]: 105%
viability, T/C [22]: 88.7%
viability, T/C [23]: 40.4%
viability, T/C (second compound 1 µM, first compound 3.16 µM): 13.3%
viability, T/C (second compound 1 µM, first compound 10 µM): 4.98%
viability, T/C [26]: 111%
viability, T/C [27]: 80.8%
viability, T/C [28]: 75.9%
viability, T/C [29]: 41.1%
viability, T/C (second compound 3.16 µM, first compound 3.16 µM): 9.4%
viability, T/C (second compound 3.16 µM, first compound 10 µM): 4.81%
viability, T/C [32]: 80.1%
viability, T/C [33]: 70%
viability, T/C [34]: 55.1%
viability, T/C [35]: 22.2%
viability, T/C (second compound 10 µM, first compound 3.16 µM): 6.21%
viability, T/C (second compound 10 µM, first compound 10 µM): 4.07%

IC50 (curve of compound): 4.06 nM and 4.91 nM
Compound: Nc1ncn(C2CC(O)C(CO)S2)c(=O)n1 (stereo unspecified)
viability, T/C (compound 0.000949 µM): 81.4% and 90.5%
viability, T/C (compound 0.003 µM): 52.7% and 62.2%
viability, T/C (compound 0.00949 µM): 39.5% and 33.1%
viability, T/C (compound 0.03 µM): 17.3% and 19.7%
viability, T/C (compound 0.0949 µM): 10.9% and 9.65%
viability, T/C (compound 0.3 µM): 12% and 4.63%
